Measured values published in patent US6867214B1, “Quinazoline derivatives and pharmaceutical applications thereof” (Daiichi Suntory Pharma Co., Ltd., priority 1998, dated 2005).
pIC50: −log10 of the molar value.

target: T1, Human heart chymase (Homo sapiens, UniProt P23946); experiment: Measurement of chymase inhibitory activity; type: biochemical; details: purified human heart chymase, substrate Suc-Ala-Ala-Pro-Phe-MCA, pH 7.5, 30° C., 10 min preincubation
T1 construct: Human heart chymase was purified according to the method of Urata et al; from tissue; host or cells: human heart
T1 sequence (P23946 22-247): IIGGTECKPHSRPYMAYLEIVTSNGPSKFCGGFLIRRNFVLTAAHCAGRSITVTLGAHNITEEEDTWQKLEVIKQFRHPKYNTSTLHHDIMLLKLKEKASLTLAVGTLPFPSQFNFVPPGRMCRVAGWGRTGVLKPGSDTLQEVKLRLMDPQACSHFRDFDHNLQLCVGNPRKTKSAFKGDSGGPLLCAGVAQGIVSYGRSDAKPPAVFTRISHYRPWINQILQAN
Protocol: Human heart chymase was purified according to the method of Urata et al. (J. Biol. Chem., 1990, 265, 22348). The inhibitory activity of the quinazoline derivatives of the present invention with respect to chymase was measured in the following manner. That is, the purified enzyme solution was diluted to a suitable concentration with 0.1M tris-hydrochloride buffer (pH=7.5), 1M sodium chloride, and 0.01% TritonX-100 to In obtain an enzyme solution. A 10 mM dimethyl sulfoxide (hereinafter referred to as DMSO) solution of Suc-Ala-Ala-Pro-Phe-MCA (Peptide Institute) was diluted 20-fold at the time of use by 0.1M tris-hydrochlorate, 1M sodium chloride, and 0.01% TritonX-100 to obtain the substrate solution.
75 μl of the enzyme solution warmed to 30° C. was mixed with 5 μl of DMSO solution of the test sample. The mixture was preincubated at 30° C. for 10 minutes. Next, 20 μl of a substrate solution warmed to 30° C. was mixed with the test sample-enzyme mixture and incubated at 30° c. After 10 minutes, 50 μl of 30% acetic acid was added to stop the enzymatic reaction. The amount of the AMC produced was quantified using a fluorescent photometer. At the same time, a blind test was carried out by adding, instead of the test sample solution, 5 μl of DMSO and performing the same reaction. […]

pIC50 | SMILES
6.52 | CC(C(=O)O)C(=O)Nc1cccc(S(=O)(=O)n2c(=O)[nH]c3cc(Cl)ccc3c2=O)c1 (centres unmarked) [Example 13, 2-{3-[(7-chloro-2,4(1H,3H)-quinazolinedion-3-yl)sulfonyl]phenylaminocarbonyl}propionic acid]

test system: human chymase induced vascular permeability; experiment: Test of human chymase induced vascular permeability exacerbation reaction; type: in vivo, Wister male rats; details: 10 mg/kg orally, 30 minutes before intracutaneous human chymase (20 mU), rat back skin, Evans Blue
Protocol: Wister male rats (body weight 200 to 220 g, Charles River Japan) were used. In the backs of the rats from which the hair had been shaved off, 100 μl (20 mU: 1U being amount of enzyme for producing 1 nmol of AMC in 1 minute from Suc-Ala-Ala-Pro-Phe-MCA at pH7.5 and 30° C.) of a solution of the human chymase enzyme solution purified in evaluation Example 1 diluted 100-fold by PBS (phosphate buffered saline) was injected intracutaneously, then immediately thereafter a 0.5% (w/w) Evans Blue solution was administered from the tail artery. After 30 minutes, the rats were sacrificed by draining their blood under anesthesia with ether and the amount of dye leaking out to the back skin was measured. The region of the skin where the dye leaked out was cut off and 1.0 ml of 1N KOH solution was added and the resultant mixture was allowed to stand at 37° C. overnight. Next, 4 ml of an acetone-0.6N phosphoric acid (13:5) mixture was added to extract the dye. The absorbance at 650 nm of the supernatant was measured. […]
Next, 10 mg/kg of the compound of Example 18 was orally administered. 30 minutes later, 100 μl (20 mU) of human chymase the same as the non-drug administered group was injected intracutaneously and the amount of dye leaked out similarly measured. The rate of suppression of the amount of dye leakage due to the compound was calculated according to the following calculation formula. […]

SMILES | Rate of suppression of amount of leakage of dye [%]
Nc1cc(S(=O)(=O)n2c(=O)[nH]c3cc(Cl)ccc3c2=O)ccc1C(=O)[O-].[Na+] [Example 18, 4-[(7-chloro-2,4(1H,3H)-quinazolinedion-3-yl)sulfonyl]anthranilic acid monosodium salt] | 64

test system: not given; experiment: not given; details: human, plasma, pH 7.2

t1/2 [h] | SMILES
1.62 | CC(C(=O)O)C(=O)Nc1cccc(S(=O)(=O)n2c(=O)[nH]c3cc(Cl)ccc3c2=O)c1 (centres unmarked) [Example 13, 2-{3-[(7-chloro-2,4(1H,3H)-quinazolinedion-3-yl)sulfonyl]phenylaminocarbonyl}propionic acid]

test system: not listed separately; experiment: Test of stability in human plasma; details: pH 7.2
Protocol: Human plasma was diluted two-fold with 50 mM sodium phosphate buffer (pH=7.2) for use as the test plasma solution. The test sample was made a DMSO solution of 1 mM concentration.
198 μl of the above two-fold diluted plasma solution warmed to 37° C. was added to 2 μl of the test sample DMSO solution and the resultant mixture was stirred and incubated at 37° C. After 0, 5, and 15 minutes, 800 μl of acetonitrile was mixed with the test sample-plasma mixture to remove the protein, then a centrifugation operation (12,000 rpm, 1 minute) was carried out and the supernatant obtained. This was diluted two-fold with distilled water and measured for of the test sample by HPLC analysis.
For the rate of recovery from the plasma, the rates of recovery at different times were calculated based on a calibration line of the test sample in a DMSO standard solution. The half-life (t1/2) in plasma was calculated by exponential recurrence analysis from the rates of recovery of these different times.

half-life at 10 µM [h] | SMILES
2.78 | Cc1ccc(S(=O)(=O)n2c(=O)[nH]c3cc(Cl)ccc3c2=O)cc1N [Example 10, 3-(3-amino-4-methylbenzenesulfonyl)-7-chloro-2,4(1H,3H)-quinazolinedione]
> 4 | O=C(O)C1Oc2ccc(S(=O)(=O)n3c(=O)[nH]c4cc(Cl)ccc4c3=O)cc2NC1=O (racemic) [Example 29, (±)-6-[(7-chloro-2,4(1H,3H)-quinazolinedion-3-yl)sulfonyl]-3-oxo-1,4-benzoxazine-2-carboxylic acid]
11.8 | CS(=O)(=O)O.Nc1cccc(S(=O)(=O)n2c(=O)[nH]c3cc(Cl)ccc3c2=O)c1 [Example 34, 3-(3-aminobenzenesulfonyl)-7-chloro-2,4-(1H,3H)quinazolinedion methanesulfonic acid salt]
1.23 | Nc1cc(S(=O)(=O)n2c(=O)[nH]c3ccc(Cl)cc3c2=O)ccc1C(=O)O [Example 32, 4-[(6-chloro-2,4(1H,3H)-quinazolinedion-3-yl)sulfonyl]anthranilic acid]
4.33 | Nc1cc(S(=O)(=O)n2c(=O)[nH]c3cc(Cl)ccc3c2=O)ccc1C(=O)O [Example 17, 4-[(7-chloro-2,4(1H,3H)-quinazolinedion-3-yl)sulfonyl]anthranilic acid]
4.38 | COc1ccc2c(=O)n(S(=O)(=O)c3ccc(C(=O)O)c(N)c3)c(=O)[nH]c2c1 [Example 27, 4-[(7-methoxy-2,4(1H,3H)-quinazolinedion-3-yl)sulfonyl]anthranilic acid]
> 4 | O=C([O-])c1ccc(S(=O)(=O)n2c(=O)[nH]c3cc(Cl)ccc3c2=O)cc1O.[Na+] [Example 16, 4-[(7-chloro-2,4(1H,3H)-quinazolinedion-3-yl)sulfonyl]salicylic acid monosodium salt]
1.72 | Nc1cc(S(=O)(=O)n2c(=O)[nH]c3cc(Cl)ccc3c2=O)ccc1C(=O)[O-].[Na+] [Example 18, 4-[(7-chloro-2,4(1H,3H)-quinazolinedion-3-yl)sulfonyl]anthranilic acid monosodium salt]
2.92 | Nc1ccccc1S(=O)(=O)n1c(=O)[nH]c2cc(Cl)ccc2c1=O [Example 2]
1.32 | COc1ccc(S(=O)(=O)n2c(=O)[nH]c3cc(Cl)ccc3c2=O)cc1NS(C)(=O)=O [Example 24, 7-chloro-3-(4-methoxy-3-methylsulfonylaminobenzenesulfonyl)-2,4(1H,3H)-quinazolinedione]
1.3 | O=c1[nH]c2cc(Cl)ccc2c(=O)n1S(=O)(=O)c1cccc(O)c1 [Example 1, 7-chloro-3-(3-hydroxybenzenesulfonyl)-2,4(1H,3H)-quinazolinedione]
1.73 | COc1ccc(S(=O)(=O)n2c(=O)[nH]c3cc(Cl)ccc3c2=O)cc1NC(C)=O [Example 22, 3-(3-acetamide-4-methoxybenzenesulfonyl)-7-chloro-2,4(1H,3H)-quinazolinedione]
0.483 | Nc1cc(S(=O)(=O)n2c(=O)[nH]c3cc(Cl)ccc3c2=O)ccc1Cl [Example 8, 3-(3-amino-4-chlorobenzenesulfonyl)-7-chloro-2,4(1H,3H)-quinazolinedione]
4.15 | Nc1cccc(S(=O)(=O)n2c(=O)[nH]c3cc(Cl)ccc3c2=O)c1 [Example 12, 3-(3-aminobenzenesulfonyl)-7-chloro-2,4(1H,3H)-quinazolinedione]
